{"source": "patent US20240368050A1", "about": "“ENHANCED PERFORMANCE UREASE INHIBITOR, COMPOSITIONS AND METHODS THEREOF” (priority 2023, published 2024)", "key": {"urease [1]": {"test_system": "urease", "type": "biochemical"}, "urease [2]": {"test_system": "urease", "test": "Longevity of urea protection by urease inhibitor", "details": "~0.1% NBPT; according to the literature and own studies", "description": "Urea can only benefit plants as an aqueous solution, so the protecting urease inhibitor NBPT must be also dissolved and spread along with urea."}, "[3]": {"details": "ammonia after 1 week, NBPT (PG, 26.70%, 8 mg) alone or oxidant added per stated mg of NBPT"}, "[4]": {"details": "ammonia after 3 days, NBPT (PG, 26.70%, 8 mg) alone or oxidant added per stated mg of NBPT"}}, "note": "Where two headings read alike, the source gives them in different places.", "data": [{"smiles": "CCCCNP(N)(N)=O", "note": "[NBPTO, oxidized N-(n-Butyl)thiophosphoric triamide]", "values": [{"measurement": "Urease Inhibitor Test (ammonia ppm), 1 week", "setting": "urease [1]", "result": 0.6, "unit": "ppm"}, {"measurement": "Urease Inhibitor Test (ammonia ppm), 2 weeks", "setting": "urease [1]", "result": 1, "unit": "ppm"}, {"measurement": "Urease Inhibitor Test (ammonia ppm), 3 weeks", "setting": "urease [1]", "result": 5, "unit": "ppm"}, {"measurement": "Urease Inhibitor Test (ammonia ppm), 3 days", "setting": "urease [1]", "result": 0.05, "unit": "ppm"}, {"measurement": "urease inhibition increase in comparison with NBPT", "setting": "urease [1]", "result": "up to eight-fold urease inhibition increase"}]}, {"smiles": "CCCCNP(N)(N)=S", "note": "[NBPT, N-(n-Butyl)thiophosphoric triamide, reference compound]", "values": [{"measurement": "longevity of urea protection", "setting": "urease [2]", "result": "around one week"}, {"measurement": "Urease Inhibitor Test with additional oxidant components (ammonia ppm), 1 week", "setting": "urease [1]; [3]", "result": 800, "unit": "ppm"}, {"measurement": "Urease Inhibitor Test (ammonia ppm), 1 week", "setting": "urease [1]; ammonia after 1 week, treatment + about 5.0 g urea in 10 mL water on 60 g soil, sealed", "result": 35, "unit": "ppm"}, {"measurement": "Urease Inhibitor Test (ammonia ppm), 2 weeks", "setting": "urease [1]; ammonia after 2 weeks, treatment + about 5.0 g urea in 10 mL water on 60 g soil, sealed", "result": 600, "unit": "ppm"}, {"measurement": "Urease Inhibitor Test with additional oxidant components (ammonia ppm), 3 days", "setting": "urease [1]; [4]", "result": 5, "unit": "ppm"}, {"measurement": "Urease Inhibitor Test (ammonia ppm), 3 days", "setting": "urease [1]; ammonia after 3 days, treatment + about 5.0 g urea in 10 mL water on 60 g soil, sealed", "result": 13, "unit": "ppm"}]}, {"smiles": "OO", "note": "[Hydrogen Peroxide, 10%, Hydrogen Peroxide]", "values": [{"measurement": "Urease Inhibitor Test with additional oxidant components (ammonia ppm), 1 week", "setting": "urease [1]", "result": 400, "unit": "ppm"}, {"measurement": "Urease Inhibitor Test with additional oxidant components (ammonia ppm), 3 days", "setting": "urease [1]", "result": 0.1, "unit": "ppm"}]}, {"smiles": "O=S(=O)([O-])OOS(=O)(=O)[O-].[K+].[K+]", "note": "[Potassium Persulfate]", "values": [{"measurement": "Urease Inhibitor Test with additional oxidant components (ammonia ppm), 1 week", "setting": "urease [1]; [3]", "result": 140, "unit": "ppm"}, {"measurement": "Urease Inhibitor Test with additional oxidant components (ammonia ppm), 3 days", "setting": "urease [1]; [4]", "result": 1, "unit": "ppm"}]}]}
